The record followed here is patent US5366543A, “Alcohol-soluble dye and ink composition containing the same” (Orient Chemical Industries, Ltd., priority 1992, dated 1994).

This data set can be described thus: Solubility Comparing Test (saturation concentration of dye in alcohol type solvents). Type of data set: physicochemical. The settings on record: for Solubility, Mixed solvent: Phenylene glycol:Benzyl alcohol:oleic acid = 4:1:1; for Solubility, Mixed solvent / Solubility, Ethylene glycol: dye added after heating the solvent to 70-80 C; for Solubility, Ethanol / Solubility, n-Propanol: saturation concentration by spotting on filter paper. How it is done:
Solubility of disazo salt-forming dyes (dye 1-5) obtained in Examples 1-5 and dyes a-c into alcohol type organic […] was tested. While stirring each dye with a magnet stirrer, the dye was first added to 100 parts of solvent and it was spotted on the filter paper (Toyo filter paper No. 2) to investigate the saturation concentration. When ethylene glycol or mixed solvent was used for the solvent, dye was added after heating the solvent to 70-80 C.
Phenylene glycol:Benzyl alcohol:oleic acid = 4:1:1
2) Numbers in the Table indicate the solubility (wt %) into the respectiv

Structures are written as SMILES.

On to `CCC(C)c1ccc(N=Nc2c(S(=O)(=O)O)cc3cc(Nc4ccc5c(O)c(N=Nc6ccc(C(C)CC)cc6)c(S(=O)(=O)O)cc5c4)ccc3c2O)cc1` (centres unmarked) [Dye 1], for which the “Solubility, Ethylene glycol” value is reported as 30 wt %. Under “listed as 1”, the “Solubility, Mixed solvent” value is 30 wt %; the “Solubility, Ethanol” value is recorded as 20 wt %; the “Solubility, n-Propanol” value is 15 wt %.
`CCC(C)c1ccc(N=Nc2c(S(=O)(=O)O)cc3cc(Nc4ccc5c(O)c(N=Nc6ccc(C(C)CC)cc6)c(S(=O)(=O)O)cc5c4)ccc3c2O)cc1` (centres unmarked) [Dye 2]: the “Solubility, Ethylene glycol” value worked out at 30 wt %. Further, for the setting “listed as 2”, the “Solubility, Mixed solvent” value came out at 40 wt %; the “Solubility, Ethanol” value worked out at 25 wt %; the “Solubility, n-Propanol” value turned out to be 20 wt %.
As for `O=S(=O)(O)c1cc2cc(Nc3ccc4c(O)c(N=Nc5ccccc5)c(S(=O)(=O)O)cc4c3)ccc2c(O)c1N=Nc1ccccc1` [Dye a], the “Solubility, Mixed solvent” value is on record as 30 wt %; the “Solubility, Ethylene glycol” value is listed as 30 wt %; the “Solubility, n-Propanol” value is reported as 5 wt %. For the same compound, where the note is “listed as a”, the “Solubility, Ethanol” value turned out to be 10 wt %.
Take `O=S(=O)(O)c1cc2cc(Nc3ccc4c(O)c(N=Nc5ccccc5)c(S(=O)(=O)O)cc4c3)ccc2c(O)c1N=Nc1ccccc1` [Dye b, reference compound]: the “Solubility, Ethanol” value (listed as b) came out at 5 wt %.
Consider `COc1cc(N=Nc2ccccc2)c(C)cc1N=Nc1c(S(=O)(=O)O)cc2cc(S(=O)(=O)O)cc(N)c2c1O` [Dye c, reference compound], for which the “Solubility, Mixed solvent” value is 40 wt %; the “Solubility, Ethanol” value worked out at 10 wt %; the “Solubility, Ethylene glycol” value is listed as 30 wt %; the “Solubility, n-Propanol” value is listed as 10 wt %.
`CCC(C)c1ccc(N=Nc2c(S(=O)(=O)O)cc3cc(Nc4ccc5c(O)c(N=Nc6ccc(C(C)CC)cc6)c(S(=O)(=O)O)cc5c4)ccc3c2O)cc1` (centres unmarked) [Dye 3]: where the note is “listed as 3”, the “Solubility, Mixed solvent” value is 30 wt %; the “Solubility, Ethanol” value amounted to 20 wt %; the “Solubility, n-Propanol” value amounted to 10 wt %.
